Data on 5 molecules can be found in publication PMC10110893, “[…]-derived synthetic cannabinoids inhibit T-type calcium channels with divergent effects on seizures in rodent models of epilepsy” (Frontiers in Physiology, 2023).

One data set deals with T1, human Cav3.1 (Homo sapiens, UniProt O43497).
T1 construct: expressed in transfected cells; host or cells: HEK293 FlpIn T-Rex cells (Invitrogen)
The data set can be described thus: FLIPR calcium flux assay, Cav3.1. The class given is cell-based. Here is the method: (§1) HEK293 FlpIn T-Rex cells (Invitrogen, CA, United States) stably expressing human Cav3.1, Cav3.2, or Cav3.3 were maintained in Dulbecco’s Modified Eagle Medium (DMEM) supplemented with 10% foetal bovine serum (FBS), 1% penicillin-streptomycin (P/S) at 37°C, and 5% CO2 as previously described ([Bladen et al., 2021]; [Udoh et al., 2022]). Hygromycin (80 μg/mL) and blasticidin (15 μg/mL) were used as selection antibiotics and cells were passaged at 80% confluency. For experiments, cells were resuspended in Leibovitz’s L-15 media (containing 1% FBS, 1% P/S, 15 mM glucose, 2 μg/mL tetracycline), plated in black, clear-bottomed poly-D-lysine-coated 96-well plates (90 μL) (Corning, NY, United States), and incubated overnight in ambient air at 37°C. All compounds tested in cellular assays were prepared as stock solutions in DMSO and final DMSO concentration was 0.1%.
(§2) Intracellular calcium flux was measured using a fluorometric imaging plate-reader (FLIPR) Calcium 5 Assay Kit and FlexStation 3 Microplate Reader (Molecular Devices, San Jose, United States). Calcium 5 dye (90 μL) prepared in low potassium HBSS (Thermo Fisher Scientific) containing (in mM) 145 NaCl, 22 HEPES, 0.338 Na2HPO4, 4.17 NaHCO3, 0.441 KH2PO4, 0.407 MgSO4, 0.493 MgCl2, 1.26 CaCl2, 5.56 glucose, and […] with pH 7.4 was applied to each well and incubated for 1 h at 37°C, ambient air prior to testing.
(§3) Fluorescence readings were taken at 2 s intervals (λ excitation = 485 nm, λ emission = 525 nm). Following 2 min baseline reading, 20 μL of SB2193, SB2193F, or NNC 55-0396 (10 nM—10 μM) was added to cells and read for 5 min, then CaCl2 (10 mM) was added and read for 3 min. Baseline fluorescence averaged over the 20 s interval preceding CaCl2 addition was subtracted and normalized to the vehicle response. Changes in fluorescence were measured in relative fluorescence units (RFU). All compounds were assayed in ≥ five independent experiments (n = 5–8) performed in duplicate. Order of compound addition and location on the plate were varied between replicates. Data was fit to a four-parameter non-linear dose-response curve using GraphPad Prism 8.2.0 software (La Jolla, United States) to determine IC50 values.
A general note: Calcium flux is commonly read through the fluorescence of an indicator in the cells.

In a further data set the target is T2, human Cav3.3 (Homo sapiens, UniProt Q9P0X4).
T2 construct: expressed in transfected cells; host or cells: HEK293 FlpIn T-Rex cells (Invitrogen)
T2 sequence (Q9P0X4 whole entry): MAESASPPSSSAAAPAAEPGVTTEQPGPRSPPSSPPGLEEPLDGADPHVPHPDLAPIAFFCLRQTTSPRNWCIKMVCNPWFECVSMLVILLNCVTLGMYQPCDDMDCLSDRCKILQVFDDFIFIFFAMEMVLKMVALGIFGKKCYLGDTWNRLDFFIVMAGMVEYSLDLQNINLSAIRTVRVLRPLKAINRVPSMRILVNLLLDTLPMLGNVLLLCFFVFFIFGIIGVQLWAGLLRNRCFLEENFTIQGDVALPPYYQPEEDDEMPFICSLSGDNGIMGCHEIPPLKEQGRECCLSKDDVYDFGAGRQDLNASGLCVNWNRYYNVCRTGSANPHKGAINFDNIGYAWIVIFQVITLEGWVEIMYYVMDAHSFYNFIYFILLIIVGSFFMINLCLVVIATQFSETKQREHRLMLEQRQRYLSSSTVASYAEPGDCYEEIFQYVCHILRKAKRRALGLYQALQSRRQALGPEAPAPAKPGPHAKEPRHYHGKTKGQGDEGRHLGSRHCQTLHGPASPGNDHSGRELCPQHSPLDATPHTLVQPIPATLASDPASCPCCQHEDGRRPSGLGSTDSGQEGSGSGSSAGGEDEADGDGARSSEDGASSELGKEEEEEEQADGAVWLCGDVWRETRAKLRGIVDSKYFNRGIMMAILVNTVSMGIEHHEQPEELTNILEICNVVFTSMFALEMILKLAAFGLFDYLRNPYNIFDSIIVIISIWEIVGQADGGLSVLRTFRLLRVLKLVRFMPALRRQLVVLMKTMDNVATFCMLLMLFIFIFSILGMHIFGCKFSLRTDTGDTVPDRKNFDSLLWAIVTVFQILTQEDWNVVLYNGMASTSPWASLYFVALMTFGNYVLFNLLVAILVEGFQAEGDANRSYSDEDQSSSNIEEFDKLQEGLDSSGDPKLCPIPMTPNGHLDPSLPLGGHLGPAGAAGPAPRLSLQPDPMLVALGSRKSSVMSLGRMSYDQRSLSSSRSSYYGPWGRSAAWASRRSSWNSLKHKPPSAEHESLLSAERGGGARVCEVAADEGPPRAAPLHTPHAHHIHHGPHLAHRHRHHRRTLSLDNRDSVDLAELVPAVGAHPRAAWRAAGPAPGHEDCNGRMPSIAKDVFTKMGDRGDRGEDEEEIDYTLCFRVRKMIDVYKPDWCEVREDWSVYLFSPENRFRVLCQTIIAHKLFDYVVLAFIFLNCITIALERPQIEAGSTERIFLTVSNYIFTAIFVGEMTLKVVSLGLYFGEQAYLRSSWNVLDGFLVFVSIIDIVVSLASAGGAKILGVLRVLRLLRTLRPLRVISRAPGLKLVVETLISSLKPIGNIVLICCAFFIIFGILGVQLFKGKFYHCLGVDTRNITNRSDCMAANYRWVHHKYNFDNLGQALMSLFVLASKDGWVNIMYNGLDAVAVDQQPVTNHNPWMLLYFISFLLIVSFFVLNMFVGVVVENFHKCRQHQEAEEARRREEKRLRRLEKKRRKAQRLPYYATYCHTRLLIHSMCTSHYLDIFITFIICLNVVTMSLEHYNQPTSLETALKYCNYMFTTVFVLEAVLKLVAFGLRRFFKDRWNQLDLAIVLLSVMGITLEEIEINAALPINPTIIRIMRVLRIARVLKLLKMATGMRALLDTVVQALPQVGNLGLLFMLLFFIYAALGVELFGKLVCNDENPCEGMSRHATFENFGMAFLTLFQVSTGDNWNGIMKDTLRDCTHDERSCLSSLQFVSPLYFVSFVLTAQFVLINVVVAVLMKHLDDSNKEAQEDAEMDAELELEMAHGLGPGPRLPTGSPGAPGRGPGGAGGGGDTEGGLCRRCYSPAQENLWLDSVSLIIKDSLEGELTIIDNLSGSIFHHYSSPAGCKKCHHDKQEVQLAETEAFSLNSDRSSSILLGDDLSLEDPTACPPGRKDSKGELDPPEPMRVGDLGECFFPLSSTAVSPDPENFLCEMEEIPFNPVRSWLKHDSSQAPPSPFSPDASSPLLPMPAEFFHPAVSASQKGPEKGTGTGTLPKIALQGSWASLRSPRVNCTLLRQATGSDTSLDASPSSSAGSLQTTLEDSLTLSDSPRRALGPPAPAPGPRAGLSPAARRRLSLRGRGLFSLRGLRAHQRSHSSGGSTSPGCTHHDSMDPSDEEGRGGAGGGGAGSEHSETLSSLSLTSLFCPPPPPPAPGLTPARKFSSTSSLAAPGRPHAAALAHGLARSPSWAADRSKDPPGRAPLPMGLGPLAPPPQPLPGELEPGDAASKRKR
The data set can be described thus: FLIPR calcium flux assay, Cav3.3. It counts as cell-based. Here is the method: as §1, §2, §3

In data set [1] the test system is cannabinoid CB1 receptors. On the set-up: method as in Kevin et al., 2022. The settings on record: ref Kevin et al., 2022; cited from earlier work.
The subject of another data set is T-type channels. On the set-up: method as in Kevin et al., 2022. The conditions noted are these: single 10 μM concentration, FLIPR calcium flux and whole-cell patch clamp, ref Kevin et al., 2022; cited from earlier work.
The nature of data set [2]: Pharmacokinetics in mouse plasma and brain after single i.p. injection. The class given is in vivo. The settings on record: both sexes, 10 mg/kg i.p.; for Tmax / half-life / Cmax: wildtype F1, ip; for AUC: wildtype F1, mouse, 10 mg/kg. The method, then: SB2193 and SB2193F were prepared in ethanol-Tween 80%–0.9% saline (1:1:18 ratio) and valproic acid in 0.9% saline. All doses were completely soluble in this vehicle except for the 100 mg/kg SB2193 dose, which was a suspension.
Male and female wildtype F1 mice aged 21–28 days postnatal received a single i. p. injection of 10 mg/kg SB2193 or SB2193F. At selected timepoints (15–240 min), mice were anesthetised with isoflurane, blood was collected via cardiac puncture and whole brains were harvested. Brains were snap frozen on dry ice, and blood plasma was isolated via centrifugation (4,000 g for 10 min, 4^○C). Brain and plasma samples were stored at −80°C until assayed.
Plasma samples (50 μL) were spiked with an internal standard (diazepam) and vortexed with 1 M NaOH (50 μL) and methyl tert-butyl ether (1 mL) to achieve protein precipitation. The organic layer was isolated by centrifugation (4,000 g for 3 min) before being frozen for 60 min at −80°C, evaporated to dryness using N2, and reconstituted in 30% acetonitrile and 0.1% formic acid in water for analysis. Brain hemispheres were homogenised in a 10x w/v 1:1 methanol-water solution using a Biospec Tissue-Tearor (Bartlesville, United States) and centrifuged at 20,000 g for 30 min at 4°C. Supernatant (100 μL) was collected and prepared following the same method as plasma.
SB2193 and SB2193F concentrations in brain and plasma samples were assessed by high performance liquid chromatography-tandem mass spectrometry (HPLC-MS/MS) using a Shimadzu Nexera liquid chromatograph coupled with a Shimadzu 8,030 triple quadrupole mass spectrometer (Kyoto, Japan). Samples were run through a Zorbax C18 HPLC Column equipped with a Zorbax Eclipse XDB-C8 guard column (2.1 × 50 mm, 3.5 μm particle size; Agilent, Santa Clara, United States) with an injection volume of 10 μL using a gradient elution. Mobile phases of acetonitrile and 0.1% formic acid in water were delivered at a flow rate of 0.6 mL/min over 4.16 min, with a stepwise adjustment of mobile phase concentration gradient over time to optimise ion separation.
Quantification was achieved by comparing experimental samples to plasma and brain standards prepared with known concentrations of SB2193 or SB2193F. Samples were quantified against a 7-point standard curve (R ^2 > 0.98 for both analytes).
Concentrations of SB2193 or SB2193F in plasma and brain at each timepoint were averaged and concentration-time curves were generated using GraphPad Prism. Pharmacokinetic parameters were calculated using non-compartmental analysis. The linear-log trapezoidal method was used to calculate drug exposure (area under the curve, AUC) using equations previously described ([Hawkins et al., 2017]).

Another data set has as its target T3, human Cav3.2 (Homo sapiens, UniProt O95180).
T3 construct: expressed in transfected cells; host or cells: HEK293 FlpIn T-Rex cells (Invitrogen)
The data set can be described thus: FLIPR calcium flux assay, Cav3.2. It counts as cell-based.

For data set [3], the system named is 6 Hz-induced seizures in Swiss mice. Also on record: method as in Barton et al., 2001. The conditions noted are these: 6 Hz model, ref Barton et al., 2001; cited from earlier work.
Data set [4] shares this test system. In words: 6 Hz seizure model in mice. It counts as in vivo, mouse. The settings on record: 300 mg/kg i.p., positive control, n = 10. Here is the method:
Swiss outbred mice used in 6 Hz seizure experiments were purchased from Australian Resources Centre (stock ARC(S); Canning Vale, Australia) and single housed for 1 week prior to experimentation to prevent fighting.
6 Hz seizures were induced in Swiss male mice (9–10 weeks old) using an Ugo Basile electroconvulsive therapy unit (Model 57,800; Gemonio, Italy). Mice were pre-treated with vehicle, SB2193 (10 mg/kg, 30 mg/kg, 100 mg/kg) or valproic acid (300 mg/kg) via i.p. injection 15 min before seizure induction based on the time-to-peak brain concentration determined in pharmacokinetic studies. […] A drop of 0.5% tetracaine was applied to both corneas immediately following the i.p. injection to provide local anaesthesia. Immediately prior to the electrical stimulation, saline was applied to each cornea to ensure electrical conductivity. Corneal electroshocks were administered at 44 mA, 6 Hz, 3 s shock duration, with a […] rectangular pulse width. Mice were shocked and scored by an observer blinded to treatment for the presence of twitching of the vibrissae, stun, myoclonus, rearing, forelimb clonus, and/or Straub tail. […] The ED50 for SB2193 was calculated using computer-assisted log-probit linear regression analysis ([Litchfield and Wilcoxon, 1949]). A χ^2 test was performed to assess statistical significance.

Setting [5] is: FLIPR calcium flux, HEK293 cells, n = 5–8.

Where two headings read alike, the source gives them in different places.

T1 sequence (O43497 whole entry): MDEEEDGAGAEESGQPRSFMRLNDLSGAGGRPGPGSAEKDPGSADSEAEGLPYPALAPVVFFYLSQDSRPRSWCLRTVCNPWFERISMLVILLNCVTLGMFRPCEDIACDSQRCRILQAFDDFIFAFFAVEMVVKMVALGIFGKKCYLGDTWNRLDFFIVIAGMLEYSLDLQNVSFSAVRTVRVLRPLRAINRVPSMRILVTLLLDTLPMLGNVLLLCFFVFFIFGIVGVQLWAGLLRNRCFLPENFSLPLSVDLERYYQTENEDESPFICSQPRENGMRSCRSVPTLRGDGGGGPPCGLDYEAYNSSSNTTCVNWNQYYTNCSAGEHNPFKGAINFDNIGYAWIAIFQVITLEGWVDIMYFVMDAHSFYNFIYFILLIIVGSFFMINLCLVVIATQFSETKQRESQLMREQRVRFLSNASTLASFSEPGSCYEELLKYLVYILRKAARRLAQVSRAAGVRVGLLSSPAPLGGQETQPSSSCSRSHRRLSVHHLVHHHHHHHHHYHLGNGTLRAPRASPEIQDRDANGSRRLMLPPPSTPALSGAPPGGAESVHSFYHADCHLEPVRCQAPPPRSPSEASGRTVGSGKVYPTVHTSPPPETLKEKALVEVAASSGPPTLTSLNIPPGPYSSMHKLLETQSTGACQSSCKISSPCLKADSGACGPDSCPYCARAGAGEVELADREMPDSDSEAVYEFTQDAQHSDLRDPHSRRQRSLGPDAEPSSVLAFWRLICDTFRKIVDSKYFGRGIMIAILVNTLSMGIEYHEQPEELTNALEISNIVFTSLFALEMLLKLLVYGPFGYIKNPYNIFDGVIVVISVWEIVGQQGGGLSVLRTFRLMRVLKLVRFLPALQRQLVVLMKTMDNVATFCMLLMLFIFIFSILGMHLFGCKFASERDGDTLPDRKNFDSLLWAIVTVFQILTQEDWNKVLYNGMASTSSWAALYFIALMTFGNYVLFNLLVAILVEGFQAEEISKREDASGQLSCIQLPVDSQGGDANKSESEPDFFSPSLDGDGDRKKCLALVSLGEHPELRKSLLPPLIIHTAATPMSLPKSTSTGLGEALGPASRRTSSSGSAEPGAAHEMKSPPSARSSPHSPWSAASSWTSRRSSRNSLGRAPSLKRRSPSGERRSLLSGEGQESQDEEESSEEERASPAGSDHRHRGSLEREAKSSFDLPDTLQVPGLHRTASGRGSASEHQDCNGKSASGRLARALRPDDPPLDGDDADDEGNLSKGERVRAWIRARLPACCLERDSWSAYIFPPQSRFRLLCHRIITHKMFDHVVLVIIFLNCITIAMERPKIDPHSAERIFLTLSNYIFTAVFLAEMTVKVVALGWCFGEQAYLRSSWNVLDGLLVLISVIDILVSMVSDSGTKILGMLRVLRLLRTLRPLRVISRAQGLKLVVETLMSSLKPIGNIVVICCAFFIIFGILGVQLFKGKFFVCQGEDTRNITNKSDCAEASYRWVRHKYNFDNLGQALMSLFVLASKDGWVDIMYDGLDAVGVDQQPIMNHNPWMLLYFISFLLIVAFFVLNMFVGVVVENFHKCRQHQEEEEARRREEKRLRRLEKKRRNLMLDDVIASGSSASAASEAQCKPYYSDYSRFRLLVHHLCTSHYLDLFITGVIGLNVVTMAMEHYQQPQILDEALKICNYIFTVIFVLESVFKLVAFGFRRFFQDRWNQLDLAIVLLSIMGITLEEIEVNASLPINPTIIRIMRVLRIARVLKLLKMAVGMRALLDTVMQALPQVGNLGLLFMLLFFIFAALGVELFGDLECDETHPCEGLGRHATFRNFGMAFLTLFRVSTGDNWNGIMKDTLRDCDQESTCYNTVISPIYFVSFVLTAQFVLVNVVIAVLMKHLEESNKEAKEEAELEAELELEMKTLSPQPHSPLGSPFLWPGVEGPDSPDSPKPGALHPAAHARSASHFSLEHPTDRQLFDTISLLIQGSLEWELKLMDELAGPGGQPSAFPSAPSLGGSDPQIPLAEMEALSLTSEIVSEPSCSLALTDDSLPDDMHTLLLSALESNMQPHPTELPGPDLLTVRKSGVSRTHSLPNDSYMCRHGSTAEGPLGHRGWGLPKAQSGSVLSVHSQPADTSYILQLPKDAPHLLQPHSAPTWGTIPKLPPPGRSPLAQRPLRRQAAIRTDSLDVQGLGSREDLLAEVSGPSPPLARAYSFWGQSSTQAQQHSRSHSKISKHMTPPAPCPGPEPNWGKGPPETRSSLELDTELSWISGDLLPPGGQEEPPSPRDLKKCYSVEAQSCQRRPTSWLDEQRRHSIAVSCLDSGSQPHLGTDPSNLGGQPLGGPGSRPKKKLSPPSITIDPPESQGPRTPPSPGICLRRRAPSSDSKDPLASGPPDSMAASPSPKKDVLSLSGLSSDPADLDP
Procedure for human Cav3.2: Intracellular calcium flux was measured using a fluorometric imaging plate-reader (FLIPR) Calcium 5 Assay Kit and FlexStation 3 Microplate Reader (Molecular Devices, San Jose, United States). […]
Fluorescence readings were taken at 2 s intervals (λ excitation = 485 nm, λ emission = 525 nm). […] Baseline fluorescence averaged over the 20 s interval preceding CaCl2 addition was subtracted and normalized to the vehicle response. Changes in fluorescence were measured in relative fluorescence units (RFU). […]

A word on the IC50: it is the concentration that gives 50% inhibition. As for `CC(C)[C@H]1c2ccc(F)cc2CC[C@@]1(CCN(C)CCCc1nc2ccccc2[nH]1)OC(=O)C1CC1` [NNC 55-036, reference compound], on human Cav3.1 (setting [5]), the “Cav3.1 pIC50” value is recorded as 5.9 ± 0.06. The IC50 at human Cav3.1 (FLIPR calcium flux, HEK293 cells, n = 5–8, read-out: Cav3.1 IC50) came out at 1300 nM; on human Cav3.3 (FLIPR calcium flux, HEK293 cells, n = 5–8, read-out: Cav3.3 IC50), 1200 nM. At human Cav3.3 (setting [5]), the “Cav3.3 pIC50” value is listed as 5.9 ± 0.06.
The Tmax is the time at which the peak concentration occurs. By half-life is commonly meant the time needed for the level to fall by half in the phase considered. A high value points to slow decline. The AUC is the area under the concentration-time curve, a measure of exposure. Low readings indicate low exposure, high ones high exposure. Regarding `CC(C)(C)OC(=O)N1CCN(C(=O)c2cn(CCCCCF)c3ccccc23)CC1` [SB2193F], the half-inhibitory concentration (IC50) was 2300 nM at human Cav3.1, 8600 nM on human Cav3.3 and 3160 nM at human Cav3.2. The “activity at cannabinoid CB1 receptors” value in data set [1] was “minimal activity”. The “inhibition of T-type channels” value in the data set on T-type channels is “strongly inhibit”. Besides, the Kp in data set [2] (wildtype F1, brain/plasma, ip, mouse, read-out: brain-plasma ratio) stood at 0.48. The Tmax in data set [2] (mouse brain) and in data set [2] (mouse plasma) was at most 15 min in each case. Moreover, the figures for the half-life in data set [2] (mouse brain) and in data set [2] (mouse plasma) were 14 min and 23 min, respectively. Also, the Cmax was determined as 2300 ± 300 nM in data set [2] (mouse brain, read-out: Cmax); 0.97 ± 0.1 µg/mL in data set [2] (mouse brain, read-out: Cmax (μg/mL)); 3100 ± 700 nM in data set [2] (mouse plasma, read-out: Cmax); 1.3 ± 0.3 µg/mL in data set [2] (mouse plasma, read-out: Cmax (μg/mL)). In addition, the area under the curve (AUC) in data set [2] (brain, ip, mouse brain, brain concentration converted assuming density of 1 g/mL) was 350 ng·h/mL; in data set [2] (plasma, ip, mouse plasma), 733 ng·h/mL.
As usually defined, the ED50 is the dose at which the effect has come halfway, by size or by number of responders. In the case of `CCC1(C)CC(=O)NC1=O` (centres unmarked) [ethosuximide], in data set [3], the ED50 is reported as above 600 mg/kg.
Turning to `CCCCCn1cc(C(=O)N2CCN(C)CC2)c2ccccc21` [reference compound], the “activity at cannabinoid CB1 receptors” value in data set [1] is on record as “minimal activity”.
Turning to `CCCC(CCC)C(=O)O` [valproic acid, reference compound], the “protection from seizures compared to vehicle” value in data set [4] is “significant protection”.
